# Tests used:
# Plasma protein binding = assay type: in vitro ADME
# From the text: (§1) Information regarding the C. parvum oocysts, generation of BKIs, CpCDPK1 enzyme inhibition, C. parvum growth inhibition by BKIs, plasma protein binding, and neonatal mouse model of C. parvum infection has been described in detail elsewhere. Information on BKI solubility and permeability, Gastroplus modeling, the interferon (IFN) γ knockout (KO) mouse model, and measurement of BKI levels in the GI tract of mice is described in the Supplementary Material. All animal experiments were approved by the Institutional Animal Care and Use Committees at the participating universities (University of Washington, University of Georgia, and University of Arizona).
# Cryptosporidium parvum [1] = assay: C. parvum growth inhibition by BKIs in vitro; assay type: cell-based; conditions: read-out: BKI EC50 for Inhibition of C. parvum Proliferation
# From the text: as §1
# Cryptosporidium parvum [2] = assay: Neonatal mouse model of C. parvum infection; assay type: in vivo; design: concentration or dose not given beside the values
# From the text: as §1
# [3] = Single oral dose pharmacokinetics of BKIs in mice (plasma); assay type: in vivo; conditions: mouse plasma
# Procedure: Mouse oral PK studies were performed as previously described. Briefly, three female BALB/c mice (10 -12 weeks old) were used in each group. With the exception of 1556, each group of mice received an individual BKI at a dose of 10 mg/kg body weight by oral gavage in 200 μL 70% Tween 80/30% ethanol diluted in saline. The only difference for mice administered 1556 was that the group received a dose of 25 mg/kg. Blood samples were taken by tail bleeding into heparinized tubes at designated time points and centrifuged to obtain plasma. The samples were frozen at -20°C. The plasma samples were prepared by adding acetonitrile + 0.1% formic acid with an internal standard. Calibration curves were generated by spiking standards of each BKI into mouse serum and preparing the standards along with test samples. The PK calculations of Cmax and AUC were performed using Phoenix WinNonlin software (Certara, Princeton, NJ).
# [4] = BKI aqueous solubility at pH 2 and 6.5; assay type: physicochemical; conditions: second of two values; measured at pH 2 and 6.5
# Procedure: Briefly, 1 μL of 20 mM dimethyl sulfoxide (DMSO) stock was added to 199 μL of buffer. Samples were vortexed and allowed to incubate at 25 °C overnight. The next day, each sample was centrifuged at 13800 rpm for 40 minutes at 25 °C. The supernatant was collected and 100 μL of the supernatant was added to 100 μL acetonitrile. Solutions were analyzed by HPLC/UV and were quantified based on a five-point calibration curve for each analyte.
# Cryptosporidium parvum [5] = assay: IFN-γ KO adult mouse model of C. parvum infection (Nluc oocyst shedding); assay type: in vivo; conditions: IFN-γ KO mice, 6 mg/kg once daily oral for 5 days
# From the text: The ability to predict in vivo efficacy with BKI ascending colon concentrations was further evaluated in an adult model of C. parvum infection. Female IFN-γ KO mice were infected with transgenic C. parvum strain UGA1 expressing nanoluciferase (Nluc), and the infection was allowed to proceed for 3–5 days. […] To account for daily growth of parasites over the course of the study, the observed RLUs in the vehicle-treated mice were used to simulate the growth of the parasite over the course of the experiment (Figure 4A). On each day of the study, the simulated parasite level was based on both the growth of the parasite and the predicted inhibition by BKI [[22–24]].
# The efficacy of BKIs in an adult mouse model of C. parvum infection was tested as previously described. Briefly, all female IFN-γ KO mice (B6.129S7-Ifngtm1Ts/J, Jackson Laboratories), were infected by oral gavage (PO) with 10,000 Nluc expressing C. parvum oocysts in 100 μL DPBS for studies with 1534. For all other studies, mice were infected PO with 1,000 Nlucexpressing C. parvum oocysts. Vehicle control groups and BKI treated groups each contained at least three mice. […] The stool samples were checked for luminescence on the day of collection and RLU readings were standardized to fecal sample weights. […]
# Cryptosporidium = system: Cryptosporidium; design: method as in PMID 12423984; conditions: cited from earlier work
SMILES,Plasma Protein Binding (Plasma protein binding),EC50 (Cryptosporidium parvum [1]),Reduction in Neonatal Mouse C. parvum Infection (Cryptosporidium parvum [2]),AUC ([3]; single oral dose 10 mg/kg),Cmax ([3]; single oral dose 10 mg/kg),Solubility (second value) [4],"in vivo efficacy (oocyst shedding, RLU) (Cryptosporidium parvum [5])",AUC ([3]; single oral dose 25 mg/kg),Cmax ([3]; single oral dose 25 mg/kg),efficacy (Cryptosporidium; human immunodeficiency virus–infected individuals),response rate (Cryptosporidium; malnourished children with cryptosporidiosis)
CCOc1ccc2cc(-c3nn(CC4CCN(C)CC4)c4ncnc(N)c34)ccc2c1 [BKI 1294],84%,2700 nM,56%,430 µmol·min/L,800 nM,–,–,–,–,–,–
CCOc1ccc2cc(-c3nn(CC4CCNCC4)c4ncnc(N)c34)ccc2n1 [BKI 1318],55%,3200 nM,65%,2208 µmol·min/L,6500 nM,–,–,–,–,–,–
CCOc1ccc2cc(-c3nn(CC4CCN(C)CC4)c4ncnc(N)c34)ccc2n1 [BKI 1369],37%,2300 nM,70%,–,300 nM,–,–,–,–,–,–
CC(C)Cn1nc(-c2ccc3cc(OC4CC4)ccc3c2)c2c(N)ncnc21 [BKI 1534],99%,2200 nM,61%,58 µmol·min/L,200 nM,2 µM,lack of BKI efficacy,–,–,–,–
CC(C)Cn1nc(-c2ccc3nc(OC4CC4)ccc3c2)c2c(N)ncnc21 [BKI 1556],86%,3200 nM,61%,–,–,7 µM,–,2082 µmol·min/L,7000 nM,–,–
Nc1ncnc2c1c(-c1ccc3nc(OC4CC4)ccc3c1)nn2CC1CCOCC1 [BKI 1557],84%,5500 nM,33%,67 µmol·min/L,900 nM,17 µM,–,–,–,–,–
CC(C)(O)Cn1cc(-c2ccc3nc(OC4CC4)ccc3c2)c2c(N)ncnc21 [BKI 1649],90%,2300 nM,56%,6416 µmol·min/L,4900 nM,83 µM,–,–,–,–,–
CC(=O)Oc1ccccc1C(=O)Nc1ncc([N+](=O)[O-])s1 [nitazoxanide],–,–,–,–,–,–,–,–,–,no efficacy,30%
